How the values were obtained:
[1] = target: Glycogen synthase kinase-3 beta (Homo sapiens) (UniProt P49841); assay: Inhibition of GSK3-beta at 10 uM by HTRF assay
[2] = Inhibition of Bcr-Abl T315 mutant at 10 uM by HTRF assay
[3] = target: Aurora kinase B (Homo sapiens) (UniProt Q96GD4); assay: Inhibition of Aurora B at 10 uM by HTRF assay
[4] = target: Epidermal growth factor receptor (Homo sapiens) (UniProt P00533); assay: Inhibition of EGFR at 10 uM by HTRF assay
[5] = target: T1, Vascular endothelial growth factor receptor 2 (Homo sapiens, UniProt P35968); assay: Inhibition of VEGFR2 expressed in HEK293 cells assessed as inhibition of receptor phosphorylation by ELISA; assay type: cell-based
[6] = target: Bcr/Abl fusion protein (Homo sapiens) (UniProt P00519+P11274); assay: Inhibition of bcr-Abl at 10 uM by HTRF assay; assay type: protein assay
[7] = target: Insulin-like growth factor 1 receptor (Homo sapiens) (UniProt P08069); assay: Inhibition of IGF1R at 10 uM by HTRF assay
[8] = target: Macrophage-stimulating protein receptor (Homo sapiens) (UniProt Q04912); assay: Inhibition of Ron at 10 uM by HTRF assay
[9] = target: Insulin receptor (Homo sapiens) (UniProt P06213); assay: Inhibition of InR at 10 uM by HTRF assay
[10] = target: Cyclin-dependent kinase 1 (Homo sapiens) (UniProt P06493); assay: Inhibition of CDK1 at 10 uM by HTRF assay
[11] = Intrinsic permeability across human Caco-2 cells
[12] = target: Serine/threonine-protein kinase PLK1 (Homo sapiens) (UniProt P53350); assay: Inhibition of Plk1 at 10 uM by HTRF assay
Serine/threonine-protein kinase PLK1 (Homo sapiens), sequence (P53350 whole entry): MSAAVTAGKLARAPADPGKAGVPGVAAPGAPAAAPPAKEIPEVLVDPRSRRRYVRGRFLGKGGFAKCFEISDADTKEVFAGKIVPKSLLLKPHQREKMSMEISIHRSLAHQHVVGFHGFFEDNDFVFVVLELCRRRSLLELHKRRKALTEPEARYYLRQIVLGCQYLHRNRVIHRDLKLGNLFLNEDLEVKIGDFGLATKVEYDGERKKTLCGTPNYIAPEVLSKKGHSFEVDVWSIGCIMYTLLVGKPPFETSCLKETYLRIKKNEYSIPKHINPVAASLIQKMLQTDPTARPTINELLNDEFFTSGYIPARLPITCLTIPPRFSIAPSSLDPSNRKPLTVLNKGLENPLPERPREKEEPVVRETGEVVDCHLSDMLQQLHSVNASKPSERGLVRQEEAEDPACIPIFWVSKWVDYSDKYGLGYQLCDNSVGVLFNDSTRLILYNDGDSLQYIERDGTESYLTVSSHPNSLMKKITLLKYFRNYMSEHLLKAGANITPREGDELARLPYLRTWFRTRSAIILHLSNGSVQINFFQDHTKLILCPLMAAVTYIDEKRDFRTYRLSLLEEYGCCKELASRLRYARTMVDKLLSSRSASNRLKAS

[13] = Inhibition of PKA at 10 uM by HTRF assay
[14] = target: Receptor-type tyrosine-protein kinase FLT3 (Homo sapiens) (UniProt P36888); assay: Inhibition of Flt3 at 10 uM by HTRF assay
Receptor-type tyrosine-protein kinase FLT3 (Homo sapiens), sequence (P36888 whole entry): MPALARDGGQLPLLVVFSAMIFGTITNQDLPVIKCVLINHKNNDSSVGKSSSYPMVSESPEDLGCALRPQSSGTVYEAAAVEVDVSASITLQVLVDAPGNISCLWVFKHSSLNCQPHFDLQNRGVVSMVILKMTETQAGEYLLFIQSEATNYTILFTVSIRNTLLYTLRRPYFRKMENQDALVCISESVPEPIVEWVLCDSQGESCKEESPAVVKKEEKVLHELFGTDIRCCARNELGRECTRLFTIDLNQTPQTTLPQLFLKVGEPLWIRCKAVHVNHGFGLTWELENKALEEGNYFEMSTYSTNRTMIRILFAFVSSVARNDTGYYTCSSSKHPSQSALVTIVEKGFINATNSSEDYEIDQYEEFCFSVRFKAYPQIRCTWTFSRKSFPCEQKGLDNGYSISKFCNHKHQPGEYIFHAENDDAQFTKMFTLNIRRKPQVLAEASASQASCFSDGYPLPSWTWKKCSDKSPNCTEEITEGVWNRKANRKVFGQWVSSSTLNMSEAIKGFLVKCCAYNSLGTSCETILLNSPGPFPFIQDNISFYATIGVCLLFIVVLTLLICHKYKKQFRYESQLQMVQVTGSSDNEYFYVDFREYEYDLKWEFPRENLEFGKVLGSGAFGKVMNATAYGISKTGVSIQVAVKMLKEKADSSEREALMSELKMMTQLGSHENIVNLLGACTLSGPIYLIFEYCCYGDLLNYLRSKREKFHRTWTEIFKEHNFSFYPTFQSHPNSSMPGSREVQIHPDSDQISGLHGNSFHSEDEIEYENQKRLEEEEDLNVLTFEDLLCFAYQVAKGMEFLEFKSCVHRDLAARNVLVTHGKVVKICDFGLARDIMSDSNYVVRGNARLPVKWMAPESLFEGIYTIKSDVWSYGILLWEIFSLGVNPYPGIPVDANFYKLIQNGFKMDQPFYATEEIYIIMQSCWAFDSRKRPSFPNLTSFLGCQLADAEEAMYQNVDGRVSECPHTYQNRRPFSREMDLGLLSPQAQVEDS

[15] = target: Cyclin-dependent kinase 2 (Homo sapiens) (UniProt P24941); assay: Inhibition of CDK2 at 10 uM by HTRF assay
[16] = target: Receptor tyrosine-protein kinase erbB-2 (Homo sapiens) (UniProt P04626); assay: Inhibition of ErbB2 at 10 uM by HTRF assay
Receptor tyrosine-protein kinase erbB-2 (Homo sapiens), sequence (P04626 whole entry): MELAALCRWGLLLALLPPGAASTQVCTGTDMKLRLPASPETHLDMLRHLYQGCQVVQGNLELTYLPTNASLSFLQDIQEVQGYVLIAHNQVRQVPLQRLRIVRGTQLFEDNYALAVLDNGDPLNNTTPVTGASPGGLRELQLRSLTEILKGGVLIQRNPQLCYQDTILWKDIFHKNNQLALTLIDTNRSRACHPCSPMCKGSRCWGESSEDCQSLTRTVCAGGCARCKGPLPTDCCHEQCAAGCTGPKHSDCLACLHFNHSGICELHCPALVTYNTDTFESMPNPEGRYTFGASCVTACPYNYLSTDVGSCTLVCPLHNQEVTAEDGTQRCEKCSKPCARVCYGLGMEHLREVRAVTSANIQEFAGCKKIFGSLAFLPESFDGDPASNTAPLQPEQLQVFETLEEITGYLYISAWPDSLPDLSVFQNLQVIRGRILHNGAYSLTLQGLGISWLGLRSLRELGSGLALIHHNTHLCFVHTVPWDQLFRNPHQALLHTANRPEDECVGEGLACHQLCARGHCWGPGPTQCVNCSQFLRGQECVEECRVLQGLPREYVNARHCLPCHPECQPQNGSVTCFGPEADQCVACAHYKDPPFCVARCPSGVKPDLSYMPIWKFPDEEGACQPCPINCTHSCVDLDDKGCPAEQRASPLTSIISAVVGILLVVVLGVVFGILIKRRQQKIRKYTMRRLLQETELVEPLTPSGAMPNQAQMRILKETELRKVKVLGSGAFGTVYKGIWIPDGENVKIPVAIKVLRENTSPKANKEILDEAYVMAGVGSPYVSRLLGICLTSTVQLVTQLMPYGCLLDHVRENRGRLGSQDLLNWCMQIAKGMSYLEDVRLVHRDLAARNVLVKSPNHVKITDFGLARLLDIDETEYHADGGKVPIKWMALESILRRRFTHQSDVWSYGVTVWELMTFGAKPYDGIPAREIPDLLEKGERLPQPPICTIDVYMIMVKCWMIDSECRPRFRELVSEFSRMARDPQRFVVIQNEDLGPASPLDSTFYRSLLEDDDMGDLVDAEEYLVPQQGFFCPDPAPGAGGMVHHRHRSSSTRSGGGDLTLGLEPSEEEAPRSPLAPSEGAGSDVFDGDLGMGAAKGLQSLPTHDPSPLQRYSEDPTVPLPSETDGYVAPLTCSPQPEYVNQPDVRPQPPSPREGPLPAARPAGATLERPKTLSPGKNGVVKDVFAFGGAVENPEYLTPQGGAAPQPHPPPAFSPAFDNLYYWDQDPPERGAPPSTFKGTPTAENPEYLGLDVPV

[17] = target: Fibroblast growth factor receptor 1 (Homo sapiens) (UniProt P11362); assay: Inhibition of FGFR1 at 10 uM by HTRF assay
[18] = target: T1, Vascular endothelial growth factor receptor 2; assay: Inhibition of VEGFR2 assessed as blockade of pGAT-biotin phosphorylation in presence of 2 uM ATP by HTRF assay
[19] = target: Vascular endothelial growth factor receptor 1 (Homo sapiens, UniProt P17948); assay: Inhibition of VEGFR1 assessed as blockade of pGAT-biotin phosphorylation in presence of 2 uM ATP by HTRF assay
Vascular endothelial growth factor receptor 1, sequence (P17948 whole entry): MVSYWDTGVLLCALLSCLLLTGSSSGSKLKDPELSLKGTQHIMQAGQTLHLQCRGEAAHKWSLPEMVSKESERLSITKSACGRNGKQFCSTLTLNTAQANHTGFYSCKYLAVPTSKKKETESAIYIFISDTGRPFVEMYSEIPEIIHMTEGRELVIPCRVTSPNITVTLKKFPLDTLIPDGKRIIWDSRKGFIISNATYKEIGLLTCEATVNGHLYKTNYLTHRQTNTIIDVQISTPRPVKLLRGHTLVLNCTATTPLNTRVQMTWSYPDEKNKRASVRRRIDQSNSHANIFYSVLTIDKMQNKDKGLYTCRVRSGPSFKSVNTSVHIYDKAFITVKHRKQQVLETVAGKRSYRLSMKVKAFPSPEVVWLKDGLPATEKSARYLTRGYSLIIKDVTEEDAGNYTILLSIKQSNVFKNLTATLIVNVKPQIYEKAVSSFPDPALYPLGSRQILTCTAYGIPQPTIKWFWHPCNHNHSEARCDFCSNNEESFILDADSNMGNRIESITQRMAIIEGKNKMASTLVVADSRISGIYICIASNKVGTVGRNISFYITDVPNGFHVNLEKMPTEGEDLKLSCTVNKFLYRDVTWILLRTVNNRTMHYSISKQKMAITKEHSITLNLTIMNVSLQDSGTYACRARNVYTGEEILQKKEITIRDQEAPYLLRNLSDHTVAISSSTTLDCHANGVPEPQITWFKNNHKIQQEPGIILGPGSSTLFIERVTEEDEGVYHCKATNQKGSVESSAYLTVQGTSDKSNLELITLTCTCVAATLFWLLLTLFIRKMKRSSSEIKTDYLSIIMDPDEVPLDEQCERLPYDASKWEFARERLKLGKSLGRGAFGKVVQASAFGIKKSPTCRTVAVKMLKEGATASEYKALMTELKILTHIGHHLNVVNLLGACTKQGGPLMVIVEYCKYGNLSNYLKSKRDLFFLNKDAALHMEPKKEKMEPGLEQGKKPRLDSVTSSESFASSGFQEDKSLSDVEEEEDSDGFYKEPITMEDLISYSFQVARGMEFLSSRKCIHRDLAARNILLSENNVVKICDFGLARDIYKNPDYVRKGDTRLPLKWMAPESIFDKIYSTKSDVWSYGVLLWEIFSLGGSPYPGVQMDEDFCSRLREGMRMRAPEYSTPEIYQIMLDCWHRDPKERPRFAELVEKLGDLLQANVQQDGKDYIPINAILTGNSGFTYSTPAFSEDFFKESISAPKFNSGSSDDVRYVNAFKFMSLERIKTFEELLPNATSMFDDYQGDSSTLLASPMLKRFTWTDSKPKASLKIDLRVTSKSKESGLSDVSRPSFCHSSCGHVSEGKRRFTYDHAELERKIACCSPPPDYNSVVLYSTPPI

[20] = target: Hepatocyte growth factor receptor (Homo sapiens) (UniProt P08581); assay: Inhibition of cMET at 10 uM by HTRF assay
[21] = target: T2, Aurora kinase A (Homo sapiens) (UniProt O14965); assay: Inhibition of Aurora A at 10 uM by HTRF assay
T2 sequence (whole entry): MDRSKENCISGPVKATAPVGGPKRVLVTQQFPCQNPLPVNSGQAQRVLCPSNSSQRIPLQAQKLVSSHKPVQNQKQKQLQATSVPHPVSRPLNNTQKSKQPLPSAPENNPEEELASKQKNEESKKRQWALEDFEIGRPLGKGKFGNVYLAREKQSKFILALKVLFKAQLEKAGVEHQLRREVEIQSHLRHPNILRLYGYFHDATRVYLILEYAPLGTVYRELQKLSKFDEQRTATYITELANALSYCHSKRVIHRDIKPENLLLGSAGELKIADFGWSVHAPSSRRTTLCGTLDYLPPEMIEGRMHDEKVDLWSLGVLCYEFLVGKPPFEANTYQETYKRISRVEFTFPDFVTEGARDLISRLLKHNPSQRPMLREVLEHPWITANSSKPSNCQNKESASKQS

[22] = target: Proto-oncogene tyrosine-protein kinase Src (Homo sapiens) (UniProt P12931); assay: Inhibition of Src at 10 uM by HTRF assay
[23] = target: T1, Vascular endothelial growth factor receptor 2; assay: Inhibition of VEGFR2 at IC50 concentration by ATP based competition assay
[24] = target: T1, Vascular endothelial growth factor receptor 2; assay: Inhibition of VEGFR2 at IC90 concentration by ATP based competition assay

Glycogen synthase kinase-3 beta (Homo sapiens), sequence (P49841 whole entry, looked up): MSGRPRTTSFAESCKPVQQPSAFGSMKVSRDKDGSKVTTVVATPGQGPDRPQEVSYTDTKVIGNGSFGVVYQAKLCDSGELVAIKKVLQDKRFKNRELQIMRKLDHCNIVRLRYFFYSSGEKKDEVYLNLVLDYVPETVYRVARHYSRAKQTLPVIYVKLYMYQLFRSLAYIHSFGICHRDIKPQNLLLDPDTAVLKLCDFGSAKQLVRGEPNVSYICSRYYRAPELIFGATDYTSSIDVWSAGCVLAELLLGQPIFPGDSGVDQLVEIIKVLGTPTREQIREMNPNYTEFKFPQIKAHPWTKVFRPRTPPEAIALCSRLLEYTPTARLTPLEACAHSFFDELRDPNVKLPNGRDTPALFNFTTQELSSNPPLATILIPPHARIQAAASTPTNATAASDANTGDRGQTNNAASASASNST
Aurora kinase B (Homo sapiens), sequence (Q96GD4 whole entry): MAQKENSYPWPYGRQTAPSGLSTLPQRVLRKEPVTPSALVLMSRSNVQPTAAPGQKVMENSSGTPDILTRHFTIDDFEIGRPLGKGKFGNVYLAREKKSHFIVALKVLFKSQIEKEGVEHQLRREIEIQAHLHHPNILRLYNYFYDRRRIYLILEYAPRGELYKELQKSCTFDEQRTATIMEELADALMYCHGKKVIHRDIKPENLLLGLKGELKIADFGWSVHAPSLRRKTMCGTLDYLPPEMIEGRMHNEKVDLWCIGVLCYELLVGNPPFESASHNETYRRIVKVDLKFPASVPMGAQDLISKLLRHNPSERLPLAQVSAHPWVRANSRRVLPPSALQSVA

inhibition [1] [%] | inhibition [2] [%] | inhibition [3] [%] | inhibition [4] [%] | IC50 [5] [nM] | inhibition [6] [%] | inhibition [7] [%] | inhibition [8] [%] | inhibition [9] [%] | inhibition [10] [%] | inhibition [12] [%] | inhibition [13] [%] | inhibition [14] [%] | inhibition [15] [%] | inhibition [16] [%] | inhibition [17] [%] | IC50 [18] [nM] | IC50 [19] [nM] | inhibition [20] [%] | inhibition [21] [%] | SMILES | further results
< 30 | < 30 | < 30 | < 30 | 56 | < 30 | < 30 | < 30 | < 30 | < 30 | < 30 | < 30 | < 30 | < 30 | < 30 | < 30 | 43 | 190 | < 30 | < 30 | Cc1ccc(NC(=O)c2nscc2NCc2ccncc2)cc1C(F)(F)F | Papp [11]: 5.9 ×10⁻⁶ cm/s; inhibition [22]: < 30%
< 30 | < 30 | < 30 | < 30 | 1040 | < 30 | < 30 | < 30 | < 30 | < 30 | < 30 | < 30 | < 30 | < 30 | < 30 | < 30 | 230 | 260 | < 30 | < 30 | O=C(Nc1ccc(Br)cc1)c1nscc1NCc1ccncc1 | Ki [23]: 90 nM; Ki [24]: 70 nM; inhibition [22]: < 30%
< 30 | < 30 | < 30 | < 30 | 54 | < 30 | < 30 | < 30 | < 30 | < 30 | < 30 | < 30 | < 30 | < 30 | < 30 | < 30 | 41 | 170 | < 30 | < 30 | O=C(Nc1cccc(C(F)(F)F)c1)c1nscc1NCc1ccncc1 | Ki [23]: 160 nM; Ki [24]: 130 nM; Papp [11]: 6.98 ×10⁻⁶ cm/s; inhibition [22]: < 30%
